Data as given in PubChem BioAssay AID2060907 (Molecular Pharmacology Branch, DTP, NCI, 2025).
Values joined by “and” are separate entries in the source; they are usually repeats but may differ in a detail not shown here. Equal entries are not always repeated.

Test system: 388556-164-R-J1-PDC complex spheroid viability
Assay: Anticancer human tumor 388556-164-R-J1-PDC patient-derived colon adenocarcinoma cell line growth inhibition [RAS]
Conditions: for viability, T/C: stronger effect = lower value
Source text: RAS pathway inhibitors in Combinations in Complex Spheroids
A high-throughput screen of multi-cell type tumor spheroids was designed to identify active combinations of RAS pathway inhibitors and targeted small molecules. Complex spheroids include a stromal component modeled by human endothelial cells (HUVEC) and fibroblasts modeled by human mesenchymal stem cells (MSCs). The concentration ranges selected for each drug and investigational agent were based upon clinically achievable concentrations if the clinical Cmax of the agent was known.
Compounds. The drugs and investigational agents: abemaciclib (NSC768073), cobimetinib (NSC768068), divarasib (GDC6063, NSC841802), docetaxel (NSC628503), GDC-1971 (RLY-1971, NSC841576), gemcitabine (NSC613327), inavolisib (NSC800729), ipatasertib (NSC767898), KB-0742 (NSC834161), MRTX-1133 (NSC836407), osimertinib (NSC779217), RMC-4630 (NSC839698), RMC-6236 (NSC851965), RMC-6291 (NSC852671), Ro-3306 (NSC812927), sapanisertib (NSC764658), SN-38 (NSC673596), staurosporine (NSC755774), SY5609 (NSC837396), and tovorafenib (DAY101, NSC766906), were obtained from the National Cancer Institute (NCI) Developmental Therapeutics Program Chemical Repository. The FDA-approved anticancer drug set is available from the NCI Developmental Therapeutics Program. […] The stock solutions were prepared in dimethyl sulfoxide (DMSO, Sigma-Aldrich, St. Louis, MO, cat. D2650) at 800-fold the tested concentration and stored at -70 degrees C prior to their use. All drugs and investigational agents were tested over a range starting from a high concentration at or near the clinical Cmax and decreasing in half-log increments. If the clinical Cmax for an agent had not been determined, the highest concentration tested was 10 microM.
Cell Culture. All cells were maintained in an incubator at 37 degrees C and 5% CO2 with 95% humidity. The PDC lines were cultured according to standard operating procedures established by the NCI PDMR. All PDCs were thawed and cultured in Matrigel-coated flasks prepared with a working solution of 1X Ham's F-12 nutrient mix, without supplementation (Invitrogen, Waltham, MA, cat. 11765054), 100 U/mL penicillin-streptomycin (Invitrogen, cat. 15140122), and 2.5% Matrigel (Corning Inc., Corning, NY, cat. 354248) for the first three passages. The 362531-283-R-J2-PDC and 782815-120-R-J1-PDC lines were cultured in 6C/Colon 1B media, which includes advanced DMEM/F-12 (Thermo Fisher Scientific, cat. 12634028), 10 mM HEPES (Thermo Fisher Scientific, cat. 15630080), 1X GlutaMAX supplement (Thermo Fisher Scientific, cat. 35050061), 0.1 mg/mL primocin (InvivoGen, San Diego, CA, cat. ant-pm-2), 10% defined fetal bovine serum, heat inactivated (HyClone Laboratories Inc., Logan, UT, cat. SH30070.03HI), 50% L-WRN conditioned media (ATCC, cat. CRL-3276), 1.25 mM N-Acetyl-L-cysteine (Sigma-Aldrich, cat. A9165), 10 mM nicotinamide (Sigma-Aldrich, cat. N0636), 1X B-27 supplement (Thermo Fisher Scientific, cat. 17504044), 1X N-2 supplement (Thermo Fisher Scientific, cat. 17502048), 50 ng/mL human EGF (Thermo Fisher Scientific, cat. PHG0311), and 10 microM Y-27632 dihydrochloride (Tocris Bioscience, cat. 1254). The K12877-001-R-J1-PDC line was cultured in 6I media, which includes all 6C/Colon 1B media plus 10 ng/mL human FGF-10 (PeproTech, cat. 100-26), 1 ng/mL human FGF-2 (PeproTech, cat. 100-18B), 1 µM prostaglandin E2 (Tocris Bioscience, cat. 2296), […] hydrocortisone (Sigma-Aldrich, cat. H4001), and […] bovine insulin (Sigma-Aldrich, cat. I6634). The K86415-001-R-J1-PDC line was cultured in 6D media, which includes all 6C/Colon 1B media components minus the L-WRN conditioned media. The 485176-168-R4-J1-PDC was cultured in PANC media, which includes all 6C/Colon 1B media plus 100 ng/mL human FGF-10 (PeproTech, cat. 100-26), 500 nM SB-431542 (Selleckchem, cat. S1067), and 10 nM gastrin (Tocris Bioscience, cat. 3006). […]

[1] = compound alone, run of 09/09/2024
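Note: spheroids exposed to compound for 7 days before readout.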
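Throughout, for viability, T/C: 100% = DMSO vehicle control luminescence.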

| IC50 (curve of compound) | Compound | viability, T/C (compound 0.0316 µM) | viability, T/C (compound 0.1 µM) | viability, T/C (compound 0.316 µM) | viability, T/C (compound 1 µM) | viability, T/C (compound 3.16 µM) | viability, T/C (compound 10 µM) | other results |
| --- | --- | --- | --- | --- | --- | --- | --- | --- |
|  | C#Cc1c(F)ccc2cc(O)cc(-c3ncc4c(N5CC6CCC(C5)N6)nc(OCC56CCCN5CC(F)C6)nc4c3F)c12 (stereo not drawn) | 84.2% [middle of 8 runs] | 75.7% [middle of 8 runs] | 95.4% [middle of 8 runs] | 93.8% [middle of 8 runs] | 87.3% [middle of 7 runs] | 70.4% [middle of 8 runs] | IC50 [1]: > 10 µM |
| > 1 µM | C=CC(=O)N1CCN(c2nc(OCC3CCCN3C)nc3c(F)c(-c4nc(N)cc(C)c4C(F)(F)F)c(Cl)cc23)C(C)C1 (stereo not drawn) | 99.2% [middle of 11 runs] | 105% [middle of 11 runs] | 102% [middle of 11 runs] | 98% [middle of 11 runs] |  |  | viability, T/C (compound 0.00316 µM): 100% [middle of 11 runs]; IC50 [1]: > 1 µM |
| > 1 µM | C=CC(=O)Nc1cc(Nc2nccc(-c3cn(C)c4ccccc34)n2)c(OC)cc1N(C)CCN(C)C | 98.9% [middle of 4 runs] | 88.7% [middle of 4 runs] | 78.6% [middle of 4 runs] | 64.3% [middle of 4 runs] |  |  | viability, T/C (compound 0.01 µM): 103% (2×) and 87.1% and 86.9% |
| > 10 µM | CC(=O)OC12COC1CC(O)C1(C)C(=O)C(O)C3=C(C)C(OC(=O)C(O)C(NC(=O)OC(C)(C)C)c4ccccc4)CC(O)(C(OC(=O)c4ccccc4)C21)C3(C)C (stereo not drawn) | 89.3% [middle of 4 runs] | 74.3% [middle of 4 runs] | 75% [middle of 4 runs] | 78.8% [middle of 4 runs] | 78.5% [middle of 4 runs] | 75.2% [middle of 4 runs] |  |
|  | CC(C)n1nc(-c2ccc3oc(N)nc3c2)c2c(N)ncnc21 | 59.4% [middle of 4 runs] | 40% (2×) and 49.2% and 51.2% |  |  |  |  | viability, T/C (compound 0.000316 µM): 104% and 82.3% and 101% (2×); viability, T/C (compound 0.00316 µM): 86.8% and 105% (2×) and 98.4%; viability, T/C (compound 0.01 µM): 83% [middle of 4 runs] |
| > 10 µM | CC(Nc1ccc2c(c1)OCCn1cc(N3C(=O)OCC3C(F)F)nc1-2)C(N)=O (stereo not drawn) |  | 87.7% [middle of 4 runs] | 88.6% [middle of 4 runs] | 80.3% [middle of 4 runs] | 74.9% [middle of 4 runs] | 67.4% [middle of 4 runs] |  |
| > 0.3 µM | CC1(C)CCC(Nc2ncc(C(F)(F)F)c(-c3c[nH]c4c(P(C)(C)=O)c(C#N)ccc34)n2)CN1 (stereo not drawn) |  |  |  |  |  |  | viability, T/C (compound 0.000949 µM): 89.6% and 97.1% and 84.3%; viability, T/C (compound 0.003 µM): 93.9% and 97.5% and 113%; viability, T/C (compound 0.00949 µM): 95.5% and 100% and 114%; viability, T/C (compound 0.03 µM): 94.3% and 100% (2×); viability, T/C (compound 0.0949 µM): 88.2% and 94.4% and 107%; viability, T/C (compound 0.3 µM): 87% and 84.8% and 87.1% |
| > 10 µM | CC1(O)CCCC1n1c(=O)c(C(F)F)cc2cnc(NC3CCN(S(C)(=O)=O)CC3)nc21 (stereo not drawn) | 92.6% and 106% and 83.1% | 100% and 93% and 103% | 107% and 99.9% and 99.4% | 102% and 97.4% and 98% | 111% and 105% (2×) | 75.2% and 57.1% and 77.8% |  |
| 2.97 µM [middle of 4 runs] | CCC(CC)c1cc(NC2CCC(N)C2)n2nccc2n1 (stereo not drawn) | 100% [middle of 4 runs] | 96.7% [middle of 4 runs] | 106% (2×) and 109% and 107% | 108% [middle of 4 runs] |  | 32% [middle of 4 runs] |  |
| > 1 µM | CCN1CCN(Cc2ccc(Nc3ncc(F)c(-c4cc(F)c5nc(C)n(C(C)C)c5c4)n3)nc2)CC1 | 100% and 93.8% and 103% | 97.8% and 98.6% and 93.7% | 83.3% and 90.2% and 96.2% | 91.3% and 82.5% and 92.3% |  |  | viability, T/C (compound 0.00316 µM): 99% and 107% and 91.4%; viability, T/C (compound 0.01 µM): 103% and 96.9% and 102% |
| 90.4 nM [middle of 4 runs] | CCc1c2c(nc3ccc(O)cc13)-c1cc3c(c(=O)n1C2)COC(=O)[C@]3(O)CC |  |  |  |  |  |  | viability, T/C (compound 0.000949 µM): 108% [middle of 4 runs]; viability, T/C (compound 0.003 µM): 93.6% [middle of 4 runs]; viability, T/C (compound 0.00949 µM): 84.6% [middle of 4 runs]; viability, T/C (compound 0.03 µM): 68.7% [middle of 4 runs]; viability, T/C (compound 0.0949 µM): 50.5% [middle of 4 runs]; viability, T/C (compound 0.3 µM): 32% [middle of 4 runs] |
|  | CCn1c(-c2cc(N3CCN(C)CC3)cnc2C(C)OC)c2c3cc(ccc31)-c1csc(n1)CC(NC(=O)C1CC1C)C(=O)N1CCCC(N1)C(=O)OCC(C)(C)C2 (stereo not drawn) |  |  |  |  |  |  | viability, T/C (compound 0.000949 µM): 99% [middle of 8 runs]; viability, T/C (compound 0.003 µM): 92% [middle of 8 runs]; viability, T/C (compound 0.00949 µM): 78.5% [middle of 8 runs]; viability, T/C (compound 0.03 µM): 62.5% [middle of 8 runs]; viability, T/C (compound 0.0949 µM): 45.2% [middle of 8 runs]; viability, T/C (compound 0.3 µM): 34.4% [middle of 8 runs]; IC50 (compound alone, run of 08/26/2024): 68.6 nM [middle of 8 runs] |
|  | CCn1c(-c2cccnc2C(C)OC)c2c3cc(ccc31)N1CCOC(CC(NC(=O)C(C(C)C)N(C)C(=O)C3(F)CCN(C(=O)C#CC(C)(C)N(C)C)CC3)C(=O)N3CCCC(N3)C(=O)OCC(C)(C)C2)C1 (stereo not drawn) |  |  |  |  |  |  | viability, T/C (compound 0.000949 µM): 105% [middle of 6 runs]; viability, T/C (compound 0.003 µM): 107% [middle of 6 runs]; viability, T/C (compound 0.00949 µM): 106% [middle of 6 runs]; viability, T/C (compound 0.03 µM): 102% [middle of 6 runs]; viability, T/C (compound 0.0949 µM): 106% [middle of 6 runs]; viability, T/C (compound 0.3 µM): 100% [middle of 6 runs]; IC50 (compound alone, run of 08/20/2024): > 0.3 µM |
| > 10 µM | C[C@@H](NC(=O)c1ncnc(N)c1Cl)c1ncc(C(=O)Nc2cc(C(F)(F)F)c(Cl)cn2)s1 | 106% [middle of 4 runs] | 112% [middle of 4 runs] | 121% [middle of 4 runs] | 118% and 115% (2×) and 132% | 116% [middle of 4 runs] | 97.4% [middle of 4 runs] |  |
| 242 nM [middle of 4 runs] | NC1c2ccccc2OC12CCN(c1cnc3c(N4CCCc5ncccc54)n[nH]c3n1)CC2 (stereo not drawn) | 70% [middle of 4 runs] | 59.9% [middle of 4 runs] | 48.8% [middle of 4 runs] | 41.2% [middle of 4 runs] | 43.6% [middle of 4 runs] | 37.6% [middle of 4 runs] |  |
| > 1 µM | Nc1ccn(C2OC(CO)C(O)C2(F)F)c(=O)n1 (stereo not drawn) | 81.8% [middle of 4 runs] | 79% [middle of 4 runs] | 74.7% [middle of 4 runs] | 70.2% [middle of 4 runs] |  |  | viability, T/C (compound 0.00316 µM): 97.9% [middle of 4 runs]; viability, T/C (compound 0.01 µM): 93.1% [middle of 4 runs] |
| 164 nM [middle of 4 runs] | O=C(c1ccc(F)c(F)c1Nc1ccc(I)cc1F)N1CC(O)([C@@H]2CCCCN2)C1 | 82.8% [middle of 4 runs] | 56.3% [middle of 4 runs] | 40.9% [middle of 4 runs] | 22.8% [middle of 4 runs] |  |  | viability, T/C (compound 0.01 µM): 93.1% [middle of 4 runs] |
